From paper PMC8364686, “Safety, tolerability, pharmacokinetics and pharmacodynamics of single oral doses of BI 187004, an inhibitor of 11beta-hydroxysteroid dehydrogenase-1, in healthy male volunteers with overweight or obesity” (Clinical Diabetes and Endocrinology, 2021)
Values joined by “and” are separate entries in the source; they are usually repeats but may differ in a detail not shown here. Equal entries are not always repeated. “Also recorded” adds a separate entry of the source.

Legend:
[1] = tested on: healthy male volunteers with overweight or obesity; experiment: Safety and tolerability (adverse events, clinical laboratory, vital signs, ECG); type: in vivo, human
Protocol: (§1) Safety and tolerability of BI 187004 were assessed in a descriptive way using the following investigations: recording of adverse events, clinical laboratory parameters (haematology, coagulation, enzymes, substrates, electrolytes, hormones, and urinalysis), vital signs (blood pressure, puls rate), 12-lead ECG (electrocardiogram) with special attention to QTc prolongation, and physical examination (occurrence of findings).

[2] = Urinary excretion of BI 187004 (LC–MS/MS); type: in vivo, human
Description: For each accepted run, the acceptance criteria for the calibration standards and quality controls were met.

[3] = tested on: HPA axis; experiment: Total urinary corticosteroid excretion (aTHF + THF + UFF + UFE + THE); details: for Total corticosteroids 0 – 24h (day 1) gMean (gCV [%]) / Total corticosteroids % of baseline 0 – 24h (day 1)/-24 – 0h (day -1) gMean (gCV): urine; for Total corticosteroids placebo corrected % change from baseline, adjusted gMean (90% CI) / Total corticosteroids placebo corrected % of baseline, adjusted gMean (90% CI): urine 0–24 h, ANCOVA
Protocol: The urinary samples for determination of urinary free cortisol (UFF), urinary free cortisone (UFE), urinary total cortisol (UTF), urinary total cortisone (UTE), and their metabolites 5alpha- or allo-tetrahydrocortisol (aTHF), 5beta-tetrahydrocortisol (THF), and tetrahydrocortisone (THE) were analyzed using a validated LC–MS/MS method.
The placebo corrected percentage change from baseline of the data shown in Supplementary Table 1 and 2 was analyzed statistically by an ANCOVA model with baseline as covariate on the logarithmic scale.

[4] = tested on: hypothalamus–pituitary–adrenal axis hormones; experiment: Hormones of the HPA axis: difference from baseline; type: in vivo, human
Protocol: as §1

SMILES: N#Cc1ccc2c(c1)[C@H]1CCCN(C(=O)c3ccc4[nH]cnc4c3)[C@H]1C2 [BI 187004]
- Incidence of headache ([1]; 3 out of 54 subjects receiving BI 187004): 5.6%
- Incidence of drug-related adverse events ([1]; all 9 BI 187004 dose groups (9 subjects)): 16.7%
- Subjects reporting at least 1 adverse event ([1]; all BI 187004 dose groups (15 subjects)): 27.8%
- Clinical laboratory evaluations, vital signs, ECG findings ([1]; single oral doses 2.5–360 mg): No clinically relevant deviations; also recorded: no notable findings
- Deaths, AEs leading to discontinuation, serious AEs ([1]; single oral doses 2.5–360 mg): no serious AEs
- Hypoglycemic episodes ([1]; single oral doses 2.5–360 mg): No hypoglycemic episodes
- Safety and tolerability ([1]; single oral doses 2.5–360 mg): well tolerated and safe; also recorded: safe and well tolerated
- Fraction of dose excreted in urine (renal excretion), range across dose groups ([2]; 0–72 h collection interval): 3–5% and 3.00–4.93%
- fe0-72 h (fraction eliminated in urine from 0 to 72 h) ([2]; 5 mg single oral dose): 3.00%
- fe0-72 h (fraction eliminated in urine from 0 to 72 h) ([2]; 10 mg single oral dose): 4.03%
- fe0-72 h (fraction eliminated in urine from 0 to 72 h) ([2]; 20 mg single oral dose): 4.93%
- fe0-72 h (fraction eliminated in urine from 0 to 72 h) ([2]; 40 mg single oral dose): 4.21%
- fe0-72 h (fraction eliminated in urine from 0 to 72 h) ([2]; 80 mg single oral dose): 4.55%
- fe0-72 h (fraction eliminated in urine from 0 to 72 h) ([2]; 160 mg single oral dose): 4.75%
- fe0-72 h (fraction eliminated in urine from 0 to 72 h) ([2]; 240 mg single oral dose): 4.88%
- fe0-72 h (fraction eliminated in urine from 0 to 72 h) ([2]; 360 mg single oral dose): 4.25%
- Total corticosteroids 0 – 24h (day 1) gMean (gCV [%]) ([3]; 2.5 mg): 16067.0 (18.128) μg
- Total corticosteroids % of baseline 0 – 24h (day 1)/-24 – 0h (day -1) gMean (gCV) ([3]; 2.5 mg): 161.3 (44.4) %
- Total corticosteroids placebo corrected % change from baseline, adjusted gMean (90% CI) ([3]; 2.5 mg): 30.3 (11.5, 52.2) 0.0062%
- Total corticosteroids placebo corrected % of baseline, adjusted gMean (90% CI) ([3]; 2.5 mg): 130.3% and 130.3 (111.5, 152.2) %
- Total corticosteroids 0 – 24h (day 1) gMean (gCV [%]) ([3]; 5 mg): 24324.0 (23.620) μg
- Total corticosteroids % of baseline 0 – 24h (day 1)/-24 – 0h (day -1) gMean (gCV) ([3]; 5 mg): 179.9 (21.8) %
- Total corticosteroids placebo corrected % change from baseline, adjusted gMean (90% CI) ([3]; 5 mg): 72.1 (47.7, 100.6) <0.0001%
- Total corticosteroids placebo corrected % of baseline, adjusted gMean (90% CI) ([3]; 5 mg): 172.1 (147.7, 200.6) %
- Total corticosteroids 0 – 24h (day 1) gMean (gCV [%]) ([3]; 10 mg): 23965.4 (24.142) μg
- Total corticosteroids % of baseline 0 – 24h (day 1)/-24 – 0h (day -1) gMean (gCV) ([3]; 10 mg): 178.1 (24.5) %
- Total corticosteroids placebo corrected % change from baseline, adjusted gMean (90% CI) ([3]; 10 mg): 69.9 (45.8, 98.1) <0.0001%
- Total corticosteroids placebo corrected % of baseline, adjusted gMean (90% CI) ([3]; 10 mg): 169.9 (145.8, 198.1) %
- Total corticosteroids 0 – 24h (day 1) gMean (gCV [%]) ([3]; 20 mg): 27240.6 (5.276) μg
- Total corticosteroids % of baseline 0 – 24h (day 1)/-24 – 0h (day -1) gMean (gCV) ([3]; 20 mg): 174.7 (31.3) %
- Total corticosteroids placebo corrected % change from baseline, adjusted gMean (90% CI) ([3]; 20 mg): 80.9 (54.9, 111.2) <0.0001%
- Total corticosteroids placebo corrected % of baseline, adjusted gMean (90% CI) ([3]; 20 mg): 180.9 (154.9, 211.2) %
- Total corticosteroids 0 – 24h (day 1) gMean (gCV [%]) ([3]; 40 mg): 24484.7 (17.661) μg
- Total corticosteroids % of baseline 0 – 24h (day 1)/-24 – 0h (day -1) gMean (gCV) ([3]; 40 mg): 213.9 (24.4) %
- Total corticosteroids placebo corrected % change from baseline, adjusted gMean (90% CI) ([3]; 40 mg): 86.6 (60.0, 117.5) <0.0001%
- Total corticosteroids placebo corrected % of baseline, adjusted gMean (90% CI) ([3]; 40 mg): 186.6 (160.0, 217.5) %
- Total corticosteroids 0 – 24h (day 1) gMean (gCV [%]) ([3]; 80 mg): 29884.0 (24.608) μg
- Total corticosteroids % of baseline 0 – 24h (day 1)/-24 – 0h (day -1) gMean (gCV) ([3]; 80 mg): 189.7 (16.0) %
- Total corticosteroids placebo corrected % change from baseline, adjusted gMean (90% CI) ([3]; 80 mg): 97.5 (69.1, 130.7) <0.0001%
- Total corticosteroids placebo corrected % of baseline, adjusted gMean (90% CI) ([3]; 80 mg): 197.5% and 197.5 (169.1, 230.7) %
- Total corticosteroids 0 – 24h (day 1) gMean (gCV [%]) ([3]; 160 mg): 25409.0 (28.223) μg
- Total corticosteroids % of baseline 0 – 24h (day 1)/-24 – 0h (day -1) gMean (gCV) ([3]; 160 mg): 171.9 (13.1) %
- Total corticosteroids placebo corrected % change from baseline, adjusted gMean (90% CI) ([3]; 160 mg): 72.8 (48.1, 101.6) <0.0001%
- Total corticosteroids placebo corrected % of baseline, adjusted gMean (90% CI) ([3]; 160 mg): 172.8 (148.1, 201.6) %
- Total corticosteroids 0 – 24h (day 1) gMean (gCV [%]) ([3]; 240 mg): 26872.4 (19.594) μg
- Total corticosteroids % of baseline 0 – 24h (day 1)/-24 – 0h (day -1) gMean (gCV) ([3]; 240 mg): 174.5 (17.4) %
- Total corticosteroids placebo corrected % change from baseline, adjusted gMean (90% CI) ([3]; 240 mg): 79.4 (53.7, 109.5) <0.0001%
- Total corticosteroids placebo corrected % of baseline, adjusted gMean (90% CI) ([3]; 240 mg): 179.4 (153.7, 209.5) %
- Total corticosteroids 0 – 24h (day 1) gMean (gCV [%]) ([3]; 360 mg): 26152.2 (30.046) μg
- Total corticosteroids % of baseline 0 – 24h (day 1)/-24 – 0h (day -1) gMean (gCV) ([3]; 360 mg): 168.0 (28.0) %
- Total corticosteroids placebo corrected % change from baseline, adjusted gMean (90% CI) ([3]; 360 mg): 73.8 (48.8, 102.9) <0.0001%
- Total corticosteroids placebo corrected % of baseline, adjusted gMean (90% CI) ([3]; 360 mg): 173.8 (148.8, 202.9) %
- Total urinary corticosteroid excretion (sum of UFF, UFE, aTHF, THF and THE), maximum across doses ([3]; placebo corrected % of baseline): up to 197.5%
- ACTH mean difference from baseline ([4]; 2.5 mg single oral dose, 24:00): 0.59 pmol/L
- Androstenedione mean difference from baseline ([4]; 2.5 mg single oral dose, 24:00): 0.2 nmol/L
- Cortisol mean difference from baseline ([4]; 2.5 mg single oral dose, 24:00): -77.1 nmol/L
- DHEA-s mean difference from baseline ([4]; 2.5 mg single oral dose, 24:00): 0.7 µmol/L
- SHBG mean difference from baseline ([4]; 2.5 mg single oral dose, 24:00): 2.6 nmol/L
- Total Testosterone mean difference from baseline ([4]; 2.5 mg single oral dose, 24:00): 0.1 nmol/L
- ACTH mean difference from baseline ([4]; 2.5 mg single oral dose, 96:00): -0.46 pmol/L
- Androstenedione mean difference from baseline ([4]; 2.5 mg single oral dose, 96:00): -1.8 nmol/L
- Cortisol mean difference from baseline ([4]; 2.5 mg single oral dose, 96:00): -65.3 nmol/L
- DHEA-s mean difference from baseline ([4]; 2.5 mg single oral dose, 96:00): 2.1 µmol/L
- SHBG mean difference from baseline ([4]; 2.5 mg single oral dose, 96:00): -0.1 nmol/L
- Total Testosterone mean difference from baseline ([4]; 2.5 mg single oral dose, 96:00): -0.3 nmol/L
- ACTH mean difference from baseline ([4]; 5 mg single oral dose, 24:00): 0.53 pmol/L
- Androstenedione mean difference from baseline ([4]; 5 mg single oral dose, 24:00): 1.2 nmol/L
- Cortisol mean difference from baseline ([4]; 5 mg single oral dose, 24:00): 1.8 nmol/L
- DHEA-s mean difference from baseline ([4]; 5 mg single oral dose, 24:00): 1.6 µmol/L
- SHBG mean difference from baseline ([4]; 5 mg single oral dose, 24:00): 3.0 nmol/L
- Total Testosterone mean difference from baseline ([4]; 5 mg single oral dose, 24:00): -0.9 nmol/L
- ACTH mean difference from baseline ([4]; 5 mg single oral dose, 96:00): -1.65 pmol/L
- Androstenedione mean difference from baseline ([4]; 5 mg single oral dose, 96:00): -3.7 nmol/L
- Cortisol mean difference from baseline ([4]; 5 mg single oral dose, 96:00): -75.0 nmol/L
- DHEA-s mean difference from baseline ([4]; 5 mg single oral dose, 96:00): 0.9 µmol/L
- SHBG mean difference from baseline ([4]; 5 mg single oral dose, 96:00): 2.7 nmol/L
- Total Testosterone mean difference from baseline ([4]; 5 mg single oral dose, 96:00): -0.7 nmol/L
- ACTH mean difference from baseline ([4]; 10 mg single oral dose, 24:00): 0.78 pmol/L
- Androstenedione mean difference from baseline ([4]; 10 mg single oral dose, 24:00): 1.3 nmol/L
- Cortisol mean difference from baseline ([4]; 10 mg single oral dose, 24:00): -78.7 nmol/L
